Patent publication US9096593B2, “Compounds and methods for kinase modulation, and indications therefor” (Plexxikon Inc., priority 2009, dated 2015)

Target: BCR-KIT/BaF3 cells (Homo sapiens, UniProt P10721)
Test: BCR-KIT/BaF3 cell proliferation assay (ATPlite)
Type: cell-based
Details: read-out: BCR/BaF3 (IC50 μM) Kit
Experimental: Compounds are assessed in a variety of cell based assays. For example BCR-FMS/BaF3, BCR-KIT/BaF3, M-NFS-60, M-07e, and BAC1.2F5 cell proliferation assays are used to assess inhibitory activity of Fms or Kit and MV-4-11 cell proliferation assay is used to assess inhibitory activity in Flt-3. Reagent and assay conditions are as follows: • BCR-FMS/BaF3 and BCR-KIT/BaF3 cells: • Maintained in RPMI containing 10% FBS, 1% PenStrep, 1% NEAA, and 1% L-Glutamine, supplemented with 1 mg/mL G418 and 5% WEHI-CM (or recombinant murine IL-3). • Confluent cells are split 1:50 to 1:100 every 3-4 days. • M-NFS-60 cells (ATCC #CRL-1838): • Maintained in RPMI containing 10% FBS, 1% Hepes, 1% NaPyruvate, and 0.45% Glucose, supplemented with 62 ng/mL murine M-CSF. • Confluent cells are split 1:20 every 3-4 days. • M-07e cells (DSMZ #ACC 104): • Maintained in IMDM containing 10% FBS, supplemented with either 200 ng/mL human SCF or […] SCF (R&D Systems 255-SC). • Confluent cells are split 1:5 to 1:10 every 3-4 days. • BAC1.2F5 cells: • Maintained in Alpha-MEM containing 10% Newborn Calf Serum (Invitrogen #26010-074) supplemented with 36 ng/mL murine M-CSF. • Confluent cells are split 1:4 every 3-4 days. • MV-4-11 cells: • Maintained in Iscove's Modified Dulbecco's Medium containing 10% FBS. • Confluent cells are split 1:4 every 3-4 days. On day 1, cells are counted, then centrifuged in a conical tube for 5 minutes at 1000 rpm. The supernatant is removed and cells are re-suspended as follows: • BCR-FMS/BaF3 and BCR-KIT/BaF3: resuspend in growth media+1 mg/mL G418 (without WEHI/IL-3) to 2×10^5 cells/mL. • M-NFS-60: resuspend in growth media +62 ng/mL murine M-CSF to 5×10^5 cells/mL. • M-07e: resuspend in growth media +200 ng/mL human SCF to 5×10^5 cells/mL. • BAC1.2F5: resuspend in growth media +36 ng/mL murine M-CSF to 1.4×10^5 cells/mL. • MV-4-11: resuspend in growth media +10% FBS to 5×10^5 cells/mL. The cells are plated (50 μL) in each well of a 96-well dish (Corning 3610) and incubated at 37° C. in 5% CO2 overnight, cells plated to a final concentration of cells as follows: • BCR-FMS/BaF3 and BCR-KIT/BaF3: 10,000 cells per well. • M-NFS-60: 25,000 cells per well. • M-07e: 25,000 cells per well. • BAC1.2F5: 7,000 cells per well. • MV-4-11: 25,000 cells per well. On day 2, compound at a maximum concentration of 5 mM is serially diluted 1:3 for a total of 8 point titration with DMSO as a control. A 1 μL aliquot of each dilution point is added to 249 μL growth media and 50 μL is added to a well containing cells, providing 10 μM compound for the maximum concentration point. The cells are incubated for 3 days at 37° C. in 5% CO2. On day 5, ATPlite 1 step Luminescence Assay System (Perkin Elmer #6016739) is brought to room temperature along with the cell cultures. ATPlite is added to each well as follows: • BCR-FMS/BaF3 and BCR-KIT/BaF3: 25 μL per well. • M-NFS-60: 25 μL per well. • M-07c: 40 μL per well. • BAC1.2F5: 50 μL per well. • MV-4-11: 40 μL per well. The cells are incubated at room temperature for 10 minutes, then luminescence is read on Safire reader. The measured luminescence correlates directly with cell number, such that the reading as a function of compound concentration is used to determine the IC50 value.

BCR-KIT/BaF3 cells, sequence (P10721 26-976 limits assumed, change not shown): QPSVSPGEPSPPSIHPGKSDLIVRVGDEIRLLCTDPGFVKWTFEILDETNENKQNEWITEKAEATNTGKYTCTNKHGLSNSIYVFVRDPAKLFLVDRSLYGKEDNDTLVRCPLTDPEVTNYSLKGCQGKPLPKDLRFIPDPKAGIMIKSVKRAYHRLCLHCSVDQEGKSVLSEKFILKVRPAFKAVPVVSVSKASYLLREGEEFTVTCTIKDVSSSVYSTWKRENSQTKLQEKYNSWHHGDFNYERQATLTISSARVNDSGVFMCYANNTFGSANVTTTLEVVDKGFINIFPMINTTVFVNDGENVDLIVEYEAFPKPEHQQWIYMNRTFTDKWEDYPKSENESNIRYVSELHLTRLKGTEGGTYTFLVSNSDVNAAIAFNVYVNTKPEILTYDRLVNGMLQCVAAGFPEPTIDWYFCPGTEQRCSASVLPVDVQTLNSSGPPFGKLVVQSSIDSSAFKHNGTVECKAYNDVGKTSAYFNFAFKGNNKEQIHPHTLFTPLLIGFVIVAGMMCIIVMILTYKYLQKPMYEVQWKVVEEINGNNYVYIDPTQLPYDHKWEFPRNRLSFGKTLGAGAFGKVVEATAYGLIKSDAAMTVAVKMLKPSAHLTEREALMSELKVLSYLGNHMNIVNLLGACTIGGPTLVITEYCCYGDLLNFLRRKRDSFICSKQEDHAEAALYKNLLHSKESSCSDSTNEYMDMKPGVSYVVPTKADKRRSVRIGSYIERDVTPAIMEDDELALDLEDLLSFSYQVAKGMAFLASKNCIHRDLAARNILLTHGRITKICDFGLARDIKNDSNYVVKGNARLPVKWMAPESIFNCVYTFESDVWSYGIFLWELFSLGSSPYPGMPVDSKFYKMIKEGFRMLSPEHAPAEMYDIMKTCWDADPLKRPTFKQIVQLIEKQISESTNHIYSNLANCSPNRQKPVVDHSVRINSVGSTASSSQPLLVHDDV

`Fc1ccc(CNc2ncc(Cc3c[nH]c4ncc(Cl)cc34)cn2)cc1F` [Compound P-2008, [5-(5-Chloro-1H-pyrrolo[2,3-b]pyridin-3-ylmethyl)-pyrimidin-2-yl]-(3,4-difluoro-benzyl)-amine] and `Cc1cccc(CNc2ncc(Cc3c[nH]c4ncc(Cl)cc34)cn2)c1` [Compound P-2013, [5-(5-Chloro-1H-pyrrolo[2,3-b]pyridin-3-ylmethyl)-pyrimidin-2-yl]-(3-methyl-benzyl)-amine] cannot be ordered by IC50: greater than 0.1 µM for the first, greater than 0.1 µM for the second.

`COc1cnc2[nH]cc(Cc3ccc(NCc4cccnc4OC)nc3F)c2c1` [Compound P-2043, [6-Fluoro-5-(5-methoxy-1H-pyrrolo[2,3-b]pyridin-3-ylmethyl)-pyridin-2-yl]-(2-methoxy-pyridin-3-ylmethyl)-amine] and `COc1ccc(CNc2ccc(Cc3c[nH]c4ncc(C)cc34)c(F)n2)c(OC)n1` [Compound P-2097, (2,6-Dimethoxy-pyridin-3-ylmethyl)-[6-fluoro-5-(5-methyl-1H-pyrrolo[2,3-b]pyridin-3-ylmethyl)-pyridin-2-yl]-amine] cannot be ordered by IC50: greater than 0.1 µM for the first, greater than 0.1 µM for the second.

`FC(F)(F)c1ccncc1CNc1ccc(Cc2c[nH]c3ncc(Cl)cc23)cn1` [Compound P-2063, [5-(5-Chloro-1H-pyrrolo[2,3-b]pyridin-3-ylmethyl)-pyridin-2-yl]-(4-trifluoromethyl-pyridin-3-ylmethyl)-amine] and `Cc1cnc2[nH]cc(Cc3ccc(NCc4cnccc4C(F)(F)F)nc3)c2c1` [Compound P-2070, [5-(5-Methyl-1H-pyrrolo[2,3-b]pyridin-3-ylmethyl)-pyridin-2-yl]-(4-trifluoromethyl-pyridin-3-ylmethyl)-amine] cannot be ordered by IC50: greater than 0.1 µM for the first, greater than 0.1 µM for the second.

`Cc1cnc2[nH]cc(Cc3cnc(NCc4ccc(Cl)nc4)nc3)c2c1` [Compound P-2078, (6-Chloro-pyridin-3-ylmethyl)-[5-(5-methyl-1H-pyrrolo[2,3-b]pyridin-3-ylmethyl)-pyrimidin-2-yl]-amine] and `Cc1cnc2[nH]cc(Cc3cnc(NCc4cccc(C)n4)nc3)c2c1` [Compound P-2079, (6-Methyl-pyridin-2-ylmethyl)-[5-(5-methyl-1H-pyrrolo[2,3-b]pyridin-3-ylmethyl)-pyrimidin-2-yl]-amine] cannot be ordered by IC50: greater than 0.1 µM for the first, greater than 0.1 µM for the second.

`Cc1cnc2[nH]cc(Cc3cnc(NCc4cccc(N5CCOCC5)n4)nc3)c2c1` [Compound P-2081, [5-(5-Methyl-1H-pyrrolo[2,3-b]pyridin-3-ylmethyl)-pyrimidin-2-yl]-(6-morpholin-4-yl-pyridin-2-ylmethyl)-amine] and `Cc1cnc2[nH]cc(Cc3cnc(NCc4cccc(N5CCCC5)n4)nc3)c2c1` [Compound P-2082, [5-(5-Methyl-1H-pyrrolo[2,3-b]pyridin-3-ylmethyl)-pyrimidin-2-yl]-(6-pyrrolidin-1-yl-pyridin-2-ylmethyl)-amine] cannot be ordered by IC50: greater than 0.1 µM for the first, greater than 0.1 µM for the second.

`Cc1cnc2[nH]cc(Cc3ccc(NCc4ccc(Cl)nc4)nc3F)c2c1` [Compound P-2088, (6-Chloro-pyridin-3-ylmethyl)-[6-fluoro-5-(5-methyl-1H-pyrrolo[2,3-b]pyridin-3-ylmethyl)-pyridin-2-yl]-amine] and `Cc1cnc2[nH]cc(Cc3ccc(NCc4ccnc(F)c4)nc3F)c2c1` [Compound P-2118, [6-Fluoro-5-(5-methyl-1H-pyrrolo[2,3-b]pyridin-3-ylmethyl)-pyridin-2-yl]-(2-fluoro-pyridin-4-ylmethyl)-amine] cannot be ordered by IC50: greater than 0.1 µM for the first, greater than 0.1 µM for the second.

`Cc1cnc2[nH]cc(Cc3ccc(NCc4cccnc4F)nc3F)c2c1` [Compound P-2103, [6-Fluoro-5-(5-methyl-1H-pyrrolo[2,3-b]pyridin-3-ylmethyl)-pyridin-2-yl]-(2-fluoro-pyridin-3-ylmethyl)-amine] and `Cc1ccc(CNc2ccc(Cc3c[nH]c4ncc(C)cc34)c(F)n2)nc1` [Compound P-2131, [6-Fluoro-5-(5-methyl-1H-pyrrolo[2,3-b]pyridin-3-ylmethyl)-pyridin-2-yl]-(5-methyl-pyridin-2-ylmethyl)-amine] cannot be ordered by IC50: greater than 0.1 µM for the first, greater than 0.1 µM for the second.

`COc1ncccc1CNc1ncc(Cc2c[nH]c3ncc(C)cc23)cn1` [Compound P-2139, (2-Methoxy-pyridin-3-ylmethyl)-[5-(5-methyl-1H-pyrrolo[2,3-b]pyridin-3-ylmethyl)-pyrimidin-2-yl]-amine] and `Cc1cnc2[nH]cc(Cc3cnc(NCc4cccnc4OC4CCCC4)nc3)c2c1` [Compound P-2148, (2-Cyclopentyloxy-pyridin-3-ylmethyl)-[5-(5-methyl-1H-pyrrolo[2,3-b]pyridin-3-ylmethyl)-pyrimidin-2-yl]-amine] cannot be ordered by IC50: greater than 0.1 µM for the first, greater than 0.1 µM for the second.

Compared with `COc1cnc2[nH]cc(Cc3cnc(NCc4ccc(C(F)(F)F)nc4)c(F)c3)c2c1` [Compound P-2147, [3-Fluoro-5-(5-methoxy-1H-pyrrolo[2,3-b]pyridin-3-ylmethyl)-pyridin-2-yl]-(6-trifluoromethyl-pyridin-3-ylmethyl)-amine], `COc1ccc(CNc2ncc(Cc3c[nH]c4ncc(Cl)cc34)s2)cn1` [Compound P-2154, [5-(5-Chloro-1H-pyrrolo[2,3-b]pyridin-3-ylmethyl)-thiazol-2-yl]-(6-methoxy-pyridin-3-ylmethyl)-amine] is higher in IC50: less than 0.1 µM for the first, greater than 0.1 µM for the second. The first is the more potent here.

For `Cn1cc(F)cc(CNc2ncc(Cc3c[nH]c4ncc(Cl)cc34)cn2)c1=O` [Compound P-2157, 3-{[5-(5-Chloro-1H-pyrrolo[2,3-b]pyridin-3-ylmethyl)-pyrimidin-2-ylamino]-methyl}-5-fluoro-1-methyl-1H-pyridin-2-one], the IC50 was greater than 0.1 µM.

Test system: not listed separately
Test: Turbidity assay of relative solubility in aqueous buffers
Type: physicochemical
Details: pH 1.4 as headed (method: SGF pH 1.5)
Experimental: As an indication of relative solubility, the turbidity of compounds in aqueous solutions is assessed. To assess possible compound properties in different physiological compartments, such as stomach, intestine, and blood, a series of aqueous buffers with varying pH is used. Thus each compound is diluted into four different physiologically relevant buffers and solution turbidity is measured by spectrophotometry.
Compounds are dissolved at a concentration of 25 mM in dimethyl sulfoxide, then serially diluted 1:1 into a 96 well plate, diluting 10 times in pure dimethyl sulfoxide, with the final well of each row a dimethyl sulfoxide blank. In an assay plate, 99 μL of appropriate buffer is added to each well, and 1 μL of each sample dilution is added to the buffer, achieving a range of final total concentrations in aqueous solutions having different pH. The buffers used are Simulated Gastric Fluid (SGF-pH 1.5) 0.5M NaCl, pH 1.5; Simulated Intestinal fluid (SIF-pH 4.5 and pH 6.8) 0.05M NaH2PO4, pH 4.5 and 6.8; and Hepes Buffer (HEPES-pH 7.4) 10 mM HEPES, 150 mM NaCl, pH 7.4. Control compounds pyrene, estriol and propranolol HCl are also assessed. Plates are spun and then mixed for 1 minute, and the absorbance is read using a Tecan Safire II to read wavelengths in the visible range (490, 535, and 650 nm) at four locations per well, reflecting the degree of turbidity present. The average optical density for each wavelength in each well is graphed vs. compound concentration, and the concentration at which the curve crosses a threshold O.D. of 0.01 for each wavelength is reported as the endpoint turbidity assay result. The average of the three wavelengths is used to compare turbidity of compounds. Compounds are considered to have low solubility if the threshold concentration is <31.3 μM, moderate solubility if the threshold concentration is 31.3 μM to 250 μM, and high solubility if the threshold concentration is >250 μM.

With `Cc1cc(CNc2ccc(Cc3c[nH]c4ncc(Cl)cc34)c(F)n2)ccn1` [Compound P-2075, [5-(5-Chloro-1H-pyrrolo[2,3-b]pyridin-3-ylmethyl)-6-fluoro-pyridin-2-yl]-(2-methyl-pyridin-4-ylmethyl)-amine] the “turbidity threshold (L, M, H) 1.4” value was “H (high solubility if the threshold concentration is >250 μM)”.

Same assay, conditions: pH 4.5 (SIF)

In the case of `Cc1cc(CNc2ccc(Cc3c[nH]c4ncc(Cl)cc34)c(F)n2)ccn1` [Compound P-2075, [5-(5-Chloro-1H-pyrrolo[2,3-b]pyridin-3-ylmethyl)-6-fluoro-pyridin-2-yl]-(2-methyl-pyridin-4-ylmethyl)-amine], the “turbidity threshold (L, M, H) 4.5” value was “M (moderate solubility if the threshold concentration is 31.3 μM to 250 μM)”.

Same assay, conditions: pH 6.8 (SIF)

With `Cc1cc(CNc2ccc(Cc3c[nH]c4ncc(Cl)cc34)c(F)n2)ccn1` [Compound P-2075, [5-(5-Chloro-1H-pyrrolo[2,3-b]pyridin-3-ylmethyl)-6-fluoro-pyridin-2-yl]-(2-methyl-pyridin-4-ylmethyl)-amine] the “turbidity threshold (L, M, H) 6.8” value was “L (low solubility if the threshold concentration is <31.3 μM)”.

Same assay, conditions: pH 7.4 (HEPES)

With `Cc1cc(CNc2ccc(Cc3c[nH]c4ncc(Cl)cc34)c(F)n2)ccn1` [Compound P-2075, [5-(5-Chloro-1H-pyrrolo[2,3-b]pyridin-3-ylmethyl)-6-fluoro-pyridin-2-yl]-(2-methyl-pyridin-4-ylmethyl)-amine] the “turbidity threshold (L, M, H) 7.4” value was “M (moderate solubility if the threshold concentration is 31.3 μM to 250 μM)”.
